The text below walks through data of patent US5834459A, “Alkyl-substituted compounds having dopamine receptor affinity” (Allelix Biopharmaceuticals Inc., priority 1996, dated 1998).

The target in experiment [1] is human D2 receptor (short isoform) (Homo sapiens, UniProt P14416). As to the kind of experiment: Receptor Binding Assay: displacement of 3H-spiperone, D2 receptor, for D2/D4 selectivity. As to conditions: for D2/D4 (selectivity): ratio D2/D4, GH4 C1 cells with human D2 short vs HEK 298 cells with human D4.2, 3H-spiperone. How it is done: (§1) The potency of the test compound to reduce ^3 H-spiperone binding directly correlated to its binding affinity for the receptor.
Chain of human D2 receptor (short isoform) (P14416 with tags, fused parts or gaps DEL242-270): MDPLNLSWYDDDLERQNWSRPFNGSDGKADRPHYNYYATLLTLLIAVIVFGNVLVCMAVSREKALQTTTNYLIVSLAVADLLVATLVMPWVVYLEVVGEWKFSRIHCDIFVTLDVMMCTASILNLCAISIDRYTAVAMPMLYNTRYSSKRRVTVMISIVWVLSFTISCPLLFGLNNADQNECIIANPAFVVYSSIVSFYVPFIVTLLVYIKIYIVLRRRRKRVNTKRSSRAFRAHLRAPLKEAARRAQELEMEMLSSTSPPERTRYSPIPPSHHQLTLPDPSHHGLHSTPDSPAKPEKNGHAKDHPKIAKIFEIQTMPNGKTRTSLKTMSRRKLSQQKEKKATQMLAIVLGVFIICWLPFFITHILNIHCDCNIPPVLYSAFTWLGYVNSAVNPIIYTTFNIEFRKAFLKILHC
GH4 C1 (rat pituitary) cells stably transfected with the human D2 receptor (short isoform) were grown in CO2 independent media in roller bottles (1500 cm^2) for 10 days. 100 μM ZnSO4 was added to the cells (the D2 promoter being zinc inducible). After 16 hours, fresh media was added to allow the cells to recover for 24 hours. The cells were harvested using versene and then centrifuged in a Sorval centrifuge for 10 minutes, at 5000 rpm (GS3 rotor). Pellets were quickly frozen in liquid nitrogen and stored at -80° C. until used in the binding assays. When used in the assay, cells were thawed on ice for 20 minutes. […] The receptor protein concentration was determined using the Pierce BCA assay.
(§2) The tubes were vortexed and incubated at room temperature for 90 minutes. The binding reaction was stopped by filtering using a Brandell Cell Harvester. The samples were filtered under vacuum over glass fibre filters (Whatman GF/B) presoaked for 2 hours in 0.3% polyethylenimine (PEI) in 50 mM Tris buffer (pH7.4). The filters were then washed 3 times with 5 mL ice cold 50 mM Tris buffer (pH7.4). Individual filter disks were put in scintillation vials (Biovials, Bechman). Ready Protein Plus liquid scintillant (5 mL, Beckman) was added and the vials counted by liquid scintillation spectrophotometry (Beckman LSC 6500) after equilibrating for three hours at room temperature to determine total binding (BT).
This assay employed the same procedures as the non-specific binding assay for D4 with the exception that 2 μM (final conc.) of (-) sulpiride (Research Chemicals Inc.) was used in place of dopamine.
(§3) The incubation was started by the addition to 12×75 mm polypropylene tubes 500 μl (50 μg protein) membrane homogenate to a solution of 400 μl incubation buffer, 100 μl (0.25 final conc.) ^3 H-spiperone (90 Ci/mmol, Amersham, diluted in borosilicate glass vial to) and […] of test compound that was prepared from 1 mM stock dissolved in DMSO and stored at -20° C. in polypropylene cryogenic storage vials until dilution in incubation buffer in borosilicate glass vials. The tubes were vortexed and incubated at room temperature for 90 minutes at which time the binding reaction was stopped by filtering. The filters were washed and counted using the same procedure as in the total binding assay described above to give the displacement binding value (BD).
(§4) IC50 was determined from an inhibition response curve, logit-log plot of %B/BO vs concentration of test compound.
(§5) Ki was calculated by the Cheng and Prustoff transformation: […]
(§6) where [L] is the concentration of ^3 H-spiperone used in the assay and KD is the dissociation constant of ^3 H-spiperone determined independently under the same binding conditions.

Experiment [2] has as its target T1, human D4 receptor (D4.2 sub-type) (Homo sapiens, UniProt P21917, DEL265-296).
T1 construct: expressed in transfected cells; cell homogenate
T1 sequence (P21917 with tags, fused parts or gaps DEL265-296): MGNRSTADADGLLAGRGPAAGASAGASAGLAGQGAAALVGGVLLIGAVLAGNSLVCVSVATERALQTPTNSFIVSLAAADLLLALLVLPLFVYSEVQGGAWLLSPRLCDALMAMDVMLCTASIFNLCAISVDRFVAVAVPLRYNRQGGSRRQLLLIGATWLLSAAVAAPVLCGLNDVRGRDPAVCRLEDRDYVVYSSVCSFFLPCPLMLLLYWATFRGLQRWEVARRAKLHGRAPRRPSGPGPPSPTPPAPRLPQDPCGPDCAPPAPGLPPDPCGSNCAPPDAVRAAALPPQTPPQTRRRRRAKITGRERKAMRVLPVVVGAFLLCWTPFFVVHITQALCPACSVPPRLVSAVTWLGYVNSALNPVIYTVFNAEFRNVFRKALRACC
As to the kind of experiment: Receptor Binding Assay: displacement of 3H-spiperone, D4 receptor. As to conditions: for Ki: 3H-spiperone displacement, HEK 298 cells transfected with human D4.2, read-out: Ki (D4 affinity). As for the experimental part: as §1
The cells were then centrifuged in a Sorval centrifuge for 10 minutes, 5000 rpm (GS3 rotor) and the pellets quickly frozen in liquid nitrogen and stored at -80° C. until used in binding assay. When used in the assay, cells were thawed on ice for 20 minutes and then 10 mL of incubation buffer (50 mM Tris, 1 mM EDTA, 4 mM MgCl2, 5 mM KCl, 1.5 mM CaCl2, 120 mM NaCl, pH7.4) was added. […] Concentration of receptor protein was determined using the Pierce BCA assay.
as §2
The tubes were vortexed and incubated at room temperature for 90 minutes at which time the binding reaction was stopped by filtering. The filters were washed and counted using the same procedure as in the total binding assay described above to give the non-specific binding value (NSB).
as §3, §4, §5, §6

Experiment [3] concerns the target D4 receptor. Particulars: background; both products approximately; cited from earlier work.
The subject of experiment [4] is D2 receptor. As to conditions: background; both products; cited from earlier work.

For orientation: Ki means the equilibrium dissociation constant of an inhibitor or competing ligand from its target.

Turning to `CCCCCCCCN1CCN(C2=Nc3ccccc3Oc3ccccc32)CC1` [11-(4-octyl-1-piperazinyl)dibenz[b,f][1,4]oxazepine], the “D4 selectivity relative to the D2 receptor (in words)” value in experiment [1] is given as “bind to the D4 receptor selectively relative to the D2 receptor”.

Take `CCCCCCCN1CCN(C2=Nc3ccccc3Oc3ccccc32)CC1` [11-(4-heptyl-1-piperazinyl)dibenz[b,f][1,4]oxazepine]: in experiment [1], the “D4 selectivity relative to the D2 receptor (in words)” value is recorded as “bind to the D4 receptor selectively relative to the D2 receptor”.

In the case of `CCCCCCCCCN1CCN(C2=Nc3ccccc3Oc3ccccc32)CC1` [11-(4-nonyl-1-piperazinyl)dibenz[b,f][1,4]oxazepine], in experiment [1], the “D4 selectivity relative to the D2 receptor (in words)” value is reported as “bind to the D4 receptor selectively relative to the D2 receptor” and the “D2/D4 (selectivity)” value stood at 3.9. Moreover, the Ki in experiment [2] amounted to 109 nM.

For `CCCCCCCCCN1CCN(C2=Nc3cc(Cl)ccc3Oc3ccccc32)CC1` [8-chloro-11-(4-nonyl-1-piperazinyl)dibenz[b,f][1,4]oxazepine], in experiment [1], the “D4 selectivity relative to the D2 receptor (in words)” value was “bind to the D4 receptor selectively relative to the D2 receptor”; the “D4 selectivity compared with clozapine (in words)” value was “better D4 affinity and selectivity than clozapine”; the “D2/D4 (selectivity)” value was determined as 30.0. In experiment [2], the Ki turned out to be 18 nM; the “D4 affinity compared with clozapine (in words)” value is “better D4 affinity and selectivity than clozapine”.

On to `CCCCCCN1CCN(C2=Nc3ccccc3Oc3ccccc32)CC1` [11-(4-hexyl-1-piperazinyl)dibenz[b,f][1,4]oxazepine], for which, in experiment [1], the “D4 selectivity relative to the D2 receptor (in words)” value is reported as “bind to the D4 receptor selectively relative to the D2 receptor”; the “D4 selectivity compared with clozapine (in words)” value is “better D4 affinity and selectivity than clozapine”; the “D2/D4 (selectivity)” value turned out to be 20.0. In addition, in experiment [2], the Ki worked out at 22 nM; the “D4 affinity compared with clozapine (in words)” value is “better D4 affinity and selectivity than clozapine”.

Take `CCCCCCCCCN1CCN(C2=Nc3ccccc3Oc3c(Cl)cccc32)CC1` [4-chloro-11-(4-nonyl-1-piperazinyl)dibenz[b,f][1,4]oxazepine]: in experiment [1], the “D4 selectivity relative to the D2 receptor (in words)” value is reported as “bind to the D4 receptor selectively relative to the D2 receptor”, the “D4 selectivity compared with clozapine (in words)” value was “better D4 selectivity than clozapine” and the “D2/D4 (selectivity)” value is 3.9. Besides, the Ki in experiment [2] was 229 nM.

Regarding `CN1CCN(C2=Nc3cc(Cl)ccc3Oc3ccccc32)CC1` [isoloxapine], in experiment [3], the Ki was roughly 20 nM. In addition, the “preference for binding the D4 receptor relative to the D2 receptor” value in experiment [4] is on record as “about 10 fold”.

For the compound `CCCCCCN1CCN(C2=Nc3ccccc3Oc3c(Cl)cccc32)CC1` [4-chloro-11-(4-hexyl-1-piperazinyl)dibenz[b,f][1,4]oxazepine], in experiment [1], the “D4 selectivity relative to the D2 receptor (in words)” value is “bind to the D4 receptor selectively relative to the D2 receptor”, the “D4 selectivity compared with clozapine (in words)” value is listed as “better D4 selectivity than clozapine” and the “D2/D4 (selectivity)” value was 31.8. Further, the Ki in experiment [2] turned out to be 32 nM.
